Like-named read-outs stand apart in the source and are kept apart here.
Assays:
Type in all cases: in vivo
[1] = tested on: Lindernia procumbens (LIDPR); test: Weed spectrum in paddy field, LIDPR; details: 20 g/ha; applied 5 days after sowing; observed two weeks
Protocol: (§1) Suitable herbicidal compositions were prepared by mixing and dissolving 1 part by weight of the active compound with 5 parts by weight of acetone and 1 part by weight of alkylaryl polyglycolether as an emulsifier and then diluting with water to the predetermined concentration. Application was made by dropping the herbicide solutions onto the water surface of the pots.
(§2) Pots having a surface area of 500 cm^2 were filled with the soil in a muddy state as mentioned above. Seeds of annual weeds such as Monochoria vaginaiis (MOOVA), Lindernia procumbens (LIDPR), Rotala indica (ROTIN), Scirpus jumcoides (SCPJU), etc. were sown on the surface layer of soil, and then were planted tubers of perennial weeds such as Cyperus serotinus (CYPSE) and Sagittaria pygmaea (SAGPY) in a depth of 1 cm, and Eleocharis kuroguwai (ELOKU) and Sagittaria trifolia (SAGTR) in a depth of 4 cm. After 5 days, the chemicals were formulated as mentioned above and applied by dropping to the water surface of the pots.

[2] = tested on: Eleocharis kuroguwai (ELOKU); test: Weed spectrum in paddy field, ELOKU; details: 20 g/ha; tubers planted 4 cm deep; applied after 5 days; observed two weeks
Protocol: as §1, §2

[3] = tested on: Monochoria vaginaiis (MOOVA); test: Weed spectrum in paddy field, MOOVA; details: 20 g/ha; applied 5 days after sowing; observed two weeks
Protocol: as §1, §2

Echinochloa crus-galli = test: Herbicidal activity to barnyardgrass in paddy condition, pre- and post-emergence, greenhouse pot test; details: Echinochloa crus-galli, 336 h, visual rating after two weeks
Excerpt: (§3) Pots having a surface area of 150 cm^2 were filled with a small amount of fertilizer and sterilized paddy field soil in a muddy state with a depth of 5 cm. Five (5) seeds of pre-germinated rice were directly sown on the soil surface and three (3) rice seedlings (2˜3 leaves) prepared in advance were transplanted in a depth of 2 cm in each pot. In another pot, seeds of barnyardgrass were sown and incorporated into the surface layer of soil. After sowing and transplanting of rice plant and sowing of barnyardgrass, the pots were flooded with water 3 cm deep and kept in a greenhouse. The rice plant was treated with the chemicals 5 days after sowing or transplanting, and barnyardgrass was treated with the chemicals at the pre-emergence (5 days after from sowing) and post-emergence stage (at the three-leaf stage, usually after 15 days from sowing).
as §1

Oryza sativa = test: Phytotoxicity to rice (direct-seeded and transplanted) in paddy condition, greenhouse pot test; details: visual rating after two weeks; for Phytotoxicity, Oryza sativa, Seed: direct-seeded rice, treated 5 days after sowing; for Phytotoxicity, Oryza sativa, Transplanted: transplanted rice seedlings, treated 5 days after transplanting
Excerpt: as §3, §1

[4] = tested on: Sagittaria pygmaea (SAGPY); test: Weed spectrum in paddy field, SAGPY; details: 20 g/ha; tubers planted 1 cm deep; applied after 5 days; observed two weeks
Protocol: as §1, §2

[5] = tested on: Scirpus jumcoides (SCPJU); test: Weed spectrum in paddy field, SCPJU; details: 20 g/ha; applied 5 days after sowing; observed two weeks
Protocol: as §1, §2

[6] = tested on: Sagittaria trifolia (SAGTR); test: Weed spectrum in paddy field, SAGTR; details: 20 g/ha; tubers planted 4 cm deep; applied after 5 days; observed two weeks
Protocol: as §1, §2

Rotala indica (ROTIN) = test: Weed spectrum in paddy field, ROTIN; details: 20 g/ha; applied 5 days after sowing; observed two weeks
Protocol: as §1, §2

[7] = tested on: Cyperus serotinus (CYPSE); test: Weed spectrum in paddy field, CYPSE; details: 20 g/ha; tubers planted 1 cm deep; applied after 5 days; observed two weeks
Protocol: as §1, §2

[8] = post-emergence, three-leaf stage, read-out: Herbicidal activity, Echinochloa crus-galli, Post-emergence (3-Leaf stage)
[9] = pre-emergence (5 days after sowing), read-out: Herbicidal activity, Echinochloa crus-galli, Pre-emergence
[10] = pre-emergence (5 days after sowing), 0 = no activity, 100 = complete death, read-out: Herbicidal activity, Echinochloa crus-galli, Pre-emergence
[11] = 80 g/ha, 0 = none, 100 = complete death

Row | SMILES | Weed spectrum, Annual weeds, LIDPR [1] | Weed spectrum, Perennial weeds, ELOKU [2] | Weed spectrum, Annual weeds, MOOVA [3] | pest or weed control at 5 g/ha (Echinochloa crus-galli; [8]) | pest or weed control at 5 g/ha (Echinochloa crus-galli; [9]) | pest or weed control at 10 g/ha (Echinochloa crus-galli; [8]) | pest or weed control at 10 g/ha (Echinochloa crus-galli; [9]) | pest or weed control at 20 g/ha (Echinochloa crus-galli; [8]) | pest or weed control at 20 g/ha (Echinochloa crus-galli; [9]) | pest or weed control at 30 g/ha (Echinochloa crus-galli; [8]) | pest or weed control at 30 g/ha (Echinochloa crus-galli; [10]) | Phytotoxicity, Oryza sativa, Seed (Oryza sativa; 10 g/ha) | Phytotoxicity, Oryza sativa, Transplanted (Oryza sativa; 10 g/ha) | Phytotoxicity, Oryza sativa, Seed (Oryza sativa; 20 g/ha) | Phytotoxicity, Oryza sativa, Transplanted (Oryza sativa; 20 g/ha) | Phytotoxicity, Oryza sativa, Seed (Oryza sativa; 40 g/ha) | Phytotoxicity, Oryza sativa, Transplanted (Oryza sativa; 40 g/ha) | Phytotoxicity, Oryza sativa, Seed (Oryza sativa; [11]) | Phytotoxicity, Oryza sativa, Transplanted (Oryza sativa; 80 g/ha) | Weed spectrum, Perennial weeds, SAGPY [4] | further results
1 | COCC(=O)O[C@H](c1ncccc1S(=O)(=O)NC(=O)Nc1nc(OC)cc(OC)n1)[C@H](C)F [Com. 2] | 100 | 95 | 100 | 50% | 60% | 90% | 100% | 100% | 100% | 100% | 100% | 0% | 0% | 0% | 0% | 20% | 10% | 30% | 10% | 95 | Weed spectrum, Annual weeds, SCPjU [5]: 100; Weed spectrum, Perennial weeds, SAGTR [6]: 90; Weed spectrum, Annual weeds, ROTIN (Rotala indica (ROTIN)): 100; Weed spectrum, Perennial weeds, CYPSE [7]: 100
2 | COCCC(=O)O[C@H](c1ncccc1S(=O)(=O)NC(=O)Nc1nc(OC)cc(OC)n1)[C@H](C)F [Com. 4] | 100 | 95 | 100 | 60% | 60% | 90% | 95% | 100% | 100% | 100% | 100% | 0% | 0% | 0% | 0% | 20% | 10% | 30% | 20% | 90 | Weed spectrum, Annual weeds, SCPjU [5]: 100; Weed spectrum, Perennial weeds, SAGTR [6]: 85; Weed spectrum, Annual weeds, ROTIN (Rotala indica (ROTIN)): 100; Weed spectrum, Perennial weeds, CYPSE [7]: 100

Reference: patent US6806229B1, “Herbicidally active pyridine sulfonyl urea derivatives” (LG Life Sciences, priority 2003, dated 2004)
